From patent publication US20240110202A1, “Advanced Cell-Permeable Peptide Carriers” (MUSC FOUNDATION FOR RESEARCH DEVELOPMENT, priority 2020, published 2024)
Entries after “also recorded” stand apart in the source; their conditions may differ.

What was measured:
[1] = tested on: CAL 27 cells; test: Quantitative siRNA cell uptake assay; format: cell-based, human; conditions: DY547-siCIP2A, 2 hours post-treatment; for siRNA delivery into cells (internalization) compared to 599: 50:1 Peptide:siRNA molar (12.5 N/P) ratio
Experimental: CAL 27 cells, grown to a confluency of 60% on a 24-well plate, were rinsed three times with Opti-MEM I Reduced Serum Media (Opti-MEM; Thermo Fisher Scientific). […] After complexation, the total volume was brought to 600 μL with Opti-MEM, after which the cells were incubated with 500 μL of peptide-siCIP2A complexes for 2 hours at 37° C. with 5% CO2. As an additional control, the cells were also transfected with 50 pmol of DY547-siCIP2A using Lipofectamine® 3000 (Thermo Fisher Scientific), according to the manufacturer's instructions. After treatment, the cells were rinsed three times with PBS, before being trypsinized for 10 minutes at 37° C., followed by centrifugation for 5 minutes at 1,000×g at 4° C. The cells were then washed with ice cold phosphate-buffered saline (PBS) and centrifuged again for 5 minutes at 1,000×g at 4° C. Next, the cells were lysed in 250 μl ice cold 0.1 M NaOH. The cell lysates were centrifuged at 4° C. for 5 minutes at 10,000×g to remove cell debris. Afterwards, 100 μL of each sample was transferred to a black 96-well plate to measure fluorescence at 530/590 nm using a BioTek (Winooski, VT) Synergy HT plate reader. Fluorescence measurements were converted to the amount of internalized siRNAs using a standard curve that was generated per experiment using known concentrations of DY547-siCIP2A ranging from 0-100 fmol/μl. Subsequently, the amount of internalized siRNA was normalized to the amount of protein, which was quantitated using the Pierce BCA Protein Assay Kit (Thermo Fisher Scientific).

[2] = Physicochemical measurements (Zetasizer) of peptide-siCIP2A complexes; conditions: complex with siCIP2A at 50:1 Peptide:siRNA molar (12.5 N/P) ratio in water; for Particle Size: mean hydrodynamic size, dynamic light scattering, ± SD; for Particle Size / Zeta Potential: three experiments; for Zeta Potential: mean ± SD
[3] = tested on: RNase A; test: RNase protection assay; format: biochemical; conditions: siCIP2A, 50:1, 1 hour at 37° C.
Experimental: (§1) Afterwards, complexes were either treated or untreated with 0.18 μg of RNase A (Thermo Fisher Scientific) for 1 hour at 37° C., followed by denaturation with 4% SDS. Next, the samples were electrophoresed on a 4% agarose gel and resulting siCIP2A bands were imaged and quantified, as described above.

[4] = Serum protection assay; format: in vitro ADME; conditions: siCIP2A, 50:1, 50% human serum, 1 hour at 37° C.
Experimental: as §1, with “50% human serum (final concentration; VWR, Radnor, PA)” for “0.18 μg of RNase A (Thermo Fisher Scientific)”

[5] = tested on: siCIP2A; test: siRNA release assay (heparin competition); conditions: 50:1 complexes; for siRNA release compared to 599: 0-10 μg heparin, 30 minutes at RT
Experimental: Afterwards complexes were incubated with either 0, 0.1, 0.5, 1.0, 2.0, 5.0 or 10 μg heparin (Millipore Sigma, St. Louis, MO) for 30 minutes at RT. The samples were then electrophoresed on a 4% agarose gel and resulting siCIP2A bands were imaged and quantified, as described above.

[6] = tested on: siCIP2A; test: siRNA binding assay (gel-shift); conditions: 10:1 Peptide:siRNA molar ratio
Description: Afterwards, the samples were electrophoresed on a 4% agarose gel and stained with ethidium bromide. Free siCIP2A was used as a normalizing control. An Ultra-Low Range DNA Ladder (Thermo Fisher Scientific, Waltham, MA) was used as a MW marker. Resulting siCIP2A bands were imaged and quantified using a G:Box Chemi XX6 and GeneSys image capture software (Syngene, Frederick, MD), respectively.

[7] = tested on: CIP2A mRNA; test: CIP2A silencing in cells, real-time PCR; format: cell-based, human; conditions: CAL 27 cells, 50:1, 48 hours
Experimental: CAL 27 cells, grown to a confluency of 60% on 24-well plates, were rinsed three times with Opti-MEM. […] Afterwards, the complexes were added to the cells at a siRNA concentration of 125 nM and incubated for 4 hours at 37° C. with 5% CO2, prior to adjusting the siRNA and FBS concentrations to 100 nM and 10%, respectively, with the addition of 50% FBS/Opti-MEM media. 48 hours post-treatment, the total RNA or protein was harvested for subsequent real-time PCR and Western blot analyses.
Total RNA was harvested using the RNeasy Mini Kit (Qiagen, Germantown, MD). RNA was then reverse transcribed using the High-Capacity cDNA Reverse Transcription Kit (Thermo Fisher Scientific) in a Bio-Rad (Hercules, CA) T100 Thermal Cycler. Next, quantitative real-time PCR was performed in an Applied Biosystems™ StepOnePlus™ Real-Time PCR machine (Thermo Fisher Scientific) using the TaqMan™ Fast Advanced Master Mix (Thermo Fisher Scientific) and predesigned TaqMan™ Gene Expression Assays (Thermo Fisher Scientific) for CIP2A (Hs00405413_m1) and 18S (4319413E), according to the manufacturer's instructions.

[8] = tested on: CIP2A mRNA; test: Dual peptide siRNA delivery system with GE11R9, CIP2A knockdown; format: cell-based, human; conditions: CAL 27 cells

Chain of RNase A (P61823 27-150): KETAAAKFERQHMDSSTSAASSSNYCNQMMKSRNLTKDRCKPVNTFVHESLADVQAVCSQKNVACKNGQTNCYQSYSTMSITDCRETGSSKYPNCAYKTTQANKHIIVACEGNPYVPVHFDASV

Substance | siRNA delivery into cells (internalization) compared to 599 [1] | PDI (Polydispersity index) [2] | Particle Size [2] [nm] | Zeta Potential [2] [mV] | ability to protect siRNAs in the presence of RNase A, compared to 599 [3] | ability to protect siRNAs in the presence of serum, compared to 599 [4] | siRNA release compared to 599 [5] | complexed siRNAs (maximally) released ([5]; increasing heparin, maximal at 4-fold excess and higher (≥2 μg; ≥120 pmol) of heparin) [%] | binding improvement relative to 599 [6] [%] | siRNA delivery into cells compared to 599 ([1]; 30:1 Peptide:siRNA molar (7.5 N/P) ratio) | gene silencing in comparison to 599 / among the peptide variants [7] | CIP2A knockdown with GE11R9 as compared to scrambled control peptide GE11SCR9 [8]
GlfeaieGfienGweGmidGwyGGGGrrrrrrrrrk [All-D] | on average lower siRNA uptake abilities in comparison to 599 | 0.366 | 185.9 ± 72.0 | 28.3 ± 7.7 | did not differ from 599 | did not differ from 599 | poor siRNA release | ~70 |  |  |  | 
GlfeaieGfienGweGmidGwyGGGGRRRRRRRRRK [INF7D] | significantly decreased levels of siRNA cell internalization; also recorded: adversely affect the intracellular delivery of siRNAs; also recorded: on average lower siRNA uptake abilities in comparison to 599; also recorded: poorest siRNA cell uptake | 0.296 | 190.4 ± 94.6 | 28.2 ± 10.2 |  | greatest instability in serum | No statistical differences in siRNA release |  | ~20 | dramatic and significant reduction in siRNA delivery into cells | weakest gene silencing effect among the peptide variants | 
YHWYGYTPQNVIGGGGRRRRRRRRRK [GE11R9, EGFR-targeting derivative of GE11 peptide with a stretch of densely packed cationic amino acids] |  |  |  |  |  |  |  |  |  |  |  | shown to be specific
